How the values were obtained:
[1] = biological target: soluble human BACE1 catalytic domain (Homo sapiens (Human), UniProt P56817); assay: BACE1 HTRF FRET Assay; format: biochemical; settings: Ki calculated from IC50 using the Cheng-Prusoff equation; QSY7-APPswe-Eu substrate, pH 5.0; read-out: BACE-1 Ki
Excerpt: Na^+-Acetate pH 5.0; 1% Brij-35; Glycerol; Dimethyl Sulfoxide (DMSO); Recombinant human soluble BACE1 catalytic domain (>95% pure); APP Swedish mutant peptide substrate (QSY7-APP^swe-Eu): QSY7-EISEVNLDAEFC-Europium-amide.
A homogeneous time-resolved FRET assay can be used to determine IC50 values for inhibitors of the soluble human BACE1 catalytic domain. This assay monitors the increase of 620 nm fluorescence that resulted from BACE1 cleavage of an APPswedish APP^swe mutant peptide FRET substrate (QSY7-EISEVNLDAEFC-Europium-amide). This substrate contains an N-terminal QSY7 moiety that serves as a quencher of the C-terminal Europium fluorophore (620 nm Em). In the absence of enzyme activity, 620 nm fluorescence is low in the assay and increased linearly over 3 hours in the presence of uninhibited BACE1 enzyme. Inhibition of BACE1 cleavage of the QSY7-APP^swe-Eu substrate by inhibitors is manifested as a suppression of 620 nm fluorescence.
Varying concentrations of inhibitors at 3× the final desired concentration in a volume of 10 ul are preincubated with purified human BACE1 catalytic domain (3 nM in 10 μl) for 30 minutes at 30° C. in reaction buffer containing 20 mM Na-Acetate pH 5.0, 10% glycerol, 0.1% Brij-35 and 7.5% DSMO. Reactions are initiated by addition of 10 μl of 600 nM QSY7-APP^swe-Eu substrate (200 nM final) to give a final reaction volume of 30 μl in a 384 well Nunc HTRF plate. The reactions are incubated at 30° C. for 1.5 hours. The 620 nm fluorescence is then read on a Rubystar HTRF plate reader (BMG Labtechnologies) using a 50 millisecond delay followed by a 400 millisecond acquisition time window. Inhibitor IC50 values are derived from non-linear regression analysis of concentration response curves. Ki values are then calculated from IC50 values using the Cheng-Prusoff equation using a previously determined […] of 8 μM for the QSY7-APP^swe-Eu substrate at BACE1.

[2] = biological target: purified human autoBACE-2 (Homo sapiens (Human), UniProt Q9Y5Z0); assay: BACE-2 Assay (BACE-HTRF assay); format: biochemical; settings: Ki calculated from IC50 using the Cheng-Prusoff equation; QSY7-EISEVNLDAEFC-Eu-amide substrate, pH 5.0
purified human autoBACE-2, sequence (Q9Y5Z0 63-473 limits assumed): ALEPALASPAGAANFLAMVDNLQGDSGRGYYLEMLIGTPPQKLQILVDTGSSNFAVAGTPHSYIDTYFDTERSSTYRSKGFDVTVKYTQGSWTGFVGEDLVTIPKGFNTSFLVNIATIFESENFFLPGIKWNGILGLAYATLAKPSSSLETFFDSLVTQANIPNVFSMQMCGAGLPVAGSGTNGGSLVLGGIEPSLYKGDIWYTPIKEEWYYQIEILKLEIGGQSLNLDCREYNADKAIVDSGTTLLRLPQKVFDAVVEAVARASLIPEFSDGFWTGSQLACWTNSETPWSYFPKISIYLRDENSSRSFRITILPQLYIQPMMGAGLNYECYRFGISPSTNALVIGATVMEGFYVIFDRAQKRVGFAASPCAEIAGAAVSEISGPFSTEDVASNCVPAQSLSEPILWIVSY
Procedure: Inhibitor IC50s at purified human autoBACE-2 are determined in a time-resolved endpoint proteolysis assay that measures hydrolysis of the QSY7-[…]-Eu-amide FRET peptide substrate (BACE-HTRF assay). […] DMSO is present at 5% final concentration in the assay. Following laser excitation of sample wells at 320 nm, the fluorescence signal at 620 nm is collected for 400 ms following a 50 μs delay on a RUBYstar HTRF plate reader (BMG Labtechnologies). Raw RFU data is normalized to maximum (1.0 nM BACE/DMSO) and minimum (no enzyme/DMSO) RFU values. […] The Ki values are calculated from the IC50 using the Cheng-Prusoff equation.

soluble human BACE1 catalytic domain, sequence (P56817 75-416): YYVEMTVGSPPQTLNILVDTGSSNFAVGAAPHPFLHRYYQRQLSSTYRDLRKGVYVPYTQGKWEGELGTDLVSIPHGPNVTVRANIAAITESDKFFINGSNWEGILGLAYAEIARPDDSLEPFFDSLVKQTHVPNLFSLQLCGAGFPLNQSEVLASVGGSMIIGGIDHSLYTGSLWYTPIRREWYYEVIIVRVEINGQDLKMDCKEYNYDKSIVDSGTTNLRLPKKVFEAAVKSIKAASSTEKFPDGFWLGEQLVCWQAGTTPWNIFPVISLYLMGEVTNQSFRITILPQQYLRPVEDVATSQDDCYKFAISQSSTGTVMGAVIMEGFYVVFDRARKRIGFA

Row | Ki [1] [nM] | Ki [2] [nM] | Compound
1 | 7 | 5 | CN1C(=N)N[C@]2(C)c3cc(NC(=O)c4ncc(Cl)cc4F)ccc3CCC[C@@H]2S1(=O)=O [Example 25, 5-chloro-3-fluoro-N-((4aS,11bR)-2-imino-3,11b-dimethyl-4,4-dioxido-1,2,3,4a,5,6,7,11b-octahydrobenzo[6,7]cyclohepta[1,2-e][1,2,4]thiadiazin-10-yl)picolinamide]
2 | 18 | 10 | CN1C(=N)N[C@]2(C)c3cc(NC(=O)c4ncc(F)cc4F)ccc3CCC[C@@H]2S1(=O)=O [Example 26, 3,5-difluoro-N-((4aS,11bR)-2-imino-3,11b-dimethyl-4,4-dioxido-1,2,3,4a,5,6,7,11b-octahydrobenzo[6,7]cyclohepta[1,2-e][1,2,4]thiadiazin-10-yl)picolinamide]
3 | 45 | 173 | COc1cnc2c(Nc3ccc4c(c3)[C@@]3(C)NC(=N)N(C)S(=O)(=O)[C@H]3CCC4)nccc2n1 [Example 44, (4aS,11bR)-2-imino-10-((2-methoxypyrido[3,4-b]pyrazin-5-yl)amino)-3,11b-dimethyl-1,2,3,4a,5,6,7,11b-octahydrobenzo[6,7]cyclohepta[1,2-e][1,2,4]-thiadiazine 4,4-dioxide]
4 | 19 | 10 | Cc1cc(C#N)cnc1C(=O)Nc1ccc2c(c1)[C@@]1(C)NC(=N)N(C)S(=O)(=O)[C@H]1CCC2 [Example 35, 5-cyano-N-((4aS,11bR)-2-imino-3,11b-dimethyl-4,4-dioxido-1,2,3,4a,5,6,7,11b-octahydrobenzo[6,7]cyclohepta[1,2-e][1,2,4]thiadiazin-10-yl)-3-methylpicolinamide]
5 | 35 | 15 | CN1C(=N)N[C@]2(C)c3cc(NC(=O)c4ccccn4)ccc3OCC[C@@H]2S1(=O)=O [Example 10, N-((4aS,11bR)-2-imino-3,11b-dimethyl-4,4-dioxido-2,3,4a,5,6,11b-hexahydro-1H-benzo[2,3]oxepino[4,5-e][1,2,4]thiadiazin-10-yl)picolinamide]
6 | 18 | 16 | Cc1ccc(C(=O)Nc2ccc3c(c2)[C@@]2(C)NC(=N)N(C)S(=O)(=O)[C@H]2CCO3)nc1 [Example 17, N-((4aS,11bR)-2-imino-3,11b-dimethyl-4,4-dioxido-2,3,4a,5,6,11b-hexahydro-1H-benzo[2,3]oxepino[4,5-e][1,2,4]thiadiazin-10-yl)-5-methylpicolinamide]
7 | 18 | 7 | CN1C(=N)N[C@]2(C)c3cc(NC(=O)c4ccc(F)cn4)ccc3CCC[C@@H]2S1(=O)=O [Example 28, 5-fluoro-N-((4aS,11bR)-2-imino-3,11b-dimethyl-4,4-dioxido-1,2,3,4a,5,6,7,11b-octahydrobenzo[6,7]cyclohepta[1,2-e][1,2,4]thiadiazin-10-yl)picolinamide]
8 | 72 | 65 | CN1C(=N)N[C@]2(C)c3cc(NC(=O)c4ccc(Cl)cn4)ccc3OCC[C@H]2S1(=O)=O [Example 1, 5-chloro-N-((4aR,11bR)-2-imino-3,11b-dimethyl-4,4-dioxido-2,3,4a,5,6,11b-hexahydro-1H-benzo[2,3]oxepino[4,5-e][1,2,4]thiadiazin-10-yl)picolinamide]
9 | 10 | 6 | CN1C(=N)N[C@]2(C)c3cc(NC(=O)c4ncc(F)cc4F)ccc3OCC[C@@H]2S1(=O)=O [Example 15]
10 | 1 | 14 | CN1C(=N)N[C@]2(C)c3cc(NC(=O)c4ccc(C#N)cn4)ccc3OCC[C@@H]2S1(=O)=O [Example 16, 5-cyano-N-((4aS,11bR)-2-imino-3,11b-dimethyl-4,4-dioxido-2,3,4a,5,6,11b-hexahydro-1H-benzo[2,3]oxepino[4,5-e][1,2,4]thiadiazin-10-yl)picolinamide]
11 | 27 | 34 | COc1cnc(C(=O)Nc2ccc3c(c2)[C@@]2(C)NC(=N)N(C)S(=O)(=O)[C@H]2CCC3)c(C)c1 [Example 32, N-((4aS,11bR)-2-imino-3,11b-dimethyl-4,4-dioxido-1,2,3,4a,5,6,7,11b-octahydrobenzo[6,7]cyclohepta[1,2-e][1,2,4]thiadiazin-10-yl)-5-methoxy-3-methylpicolinamide]
12 | 412 | 1790 | COc1cnc2c(Nc3ccc4c(c3)[C@@]3(C)NC(=N)N(C)S(=O)(=O)[C@H]3CCO4)ccnc2c1 [Example 42, (4aS,11bR)-2-imino-10-((7-methoxy-1,5-naphthyridin-4-yl)amino)-3,11b-dimethyl-2,3,4a,5,6,11b-hexahydro-1H-benzo[2,3]oxepino[4,5-e][1,2,4]-thiadiazine 4,4-dioxide]
13 | 591 | 5610 | COc1cnc(C(=O)Nc2ccc3c(c2)[C@@]2(C)NC(=N)N(C)S(=O)(=O)[C@@H]2CCO3)cn1 [Example 9, N-((4aR,11bR)-2-imino-3,11b-dimethyl-4,4-dioxido-2,3,4a,5,6,11b-hexahydro-1H-benzo[2,3]oxepino[4,5-e][1,2,4]thiadiazin-10-yl)-5-methoxypyrazine-2-carboxamide]

Row | Compound | Ki [1] [nM] | Ki [2] [nM]
14 | COc1cnc(C(=O)Nc2ccc3c(c2)[C@@]2(C)NC(=N)N(C)S(=O)(=O)[C@H]2CCC3)cn1 [Example 34] | 17 | 52
15 | Cc1nc(C(=O)Nc2ccc3c(c2)[C@@]2(C)NC(=N)N(C)S(=O)(=O)[C@@H]2CCO3)c(C)o1 [Example 3, N-((4aR,11bR)-2-imino-3,11b-dimethyl-4,4-dioxido-2,3,4a,5,6,11b-hexahydro-1H-benzo[2,3]oxepino[4,5-e][1,2,4]thiadiazin-10-yl)-2,5-dimethyloxazole-4-carboxamide] | 265 | 384
16 | CN1C(=N)N[C@]2(C)c3cc(NCC4CC4)ccc3OCC[C@@H]2S1(=O)=O [Example 48, (4aS,11bR)-10-((cyclopropylmethyl)amino)-2-imino-3,11b-dimethyl-2,3,4a,5,6,11b-hexahydro-1H-benzo[2,3]oxepino[4,5-e][1,2,4]thiadiazine 4,4-dioxide] | 880 | 2010
17 | CN1C(=N)N[C@]2(C)c3cc(NC(=O)c4ccc(OC(F)(F)F)cn4)ccc3OCC[C@@H]2S1(=O)=O [Example 19, N-((4aS,11bR)-2-imino-3,11b-dimethyl-4,4-dioxido-2,3,4a,5,6,11b-hexahydro-1H-benzo[2,3]oxepino[4,5-e][1,2,4]thiadiazin-10-yl)-5-(trifluoromethoxy)picolinamide] | 8 | 104
18 | CN1C(=N)N[C@]2(C)c3cc(NC(=O)c4ccc(C#N)cn4)ccc3CCC[C@H]2S1(=O)=O [Example 39] | 60 | 315
19 | CN1C(=N)N[C@]2(C)c3cc(NC(=O)c4ccc(OC(F)F)cn4)ccc3CCC[C@H]2S1(=O)=O [Example 38, 5-(difluoromethoxy)-N-((4aR,11bR)-2-imino-3,11b-dimethyl-4,4-dioxido-1,2,3,4a,5,6,7,11b-octahydrobenzo[6,7]cyclohepta[1,2-e][1,2,4]thiadiazin-10-yl)picolinamide] | 80 | 857
20 | CCCNc1ccc2c(c1)[C@@]1(C)NC(=N)N(C)S(=O)(=O)[C@H]1CCO2 [Example 49, (4aS,11bR)-2-imino-3,11b-dimethyl-10-(propylamino)-2,3,4a,5,6,11b-hexahydro-1H-benzo[2,3]oxepino[4,5-e][1,2,4]thiadiazine 4,4-dioxide] | 918 | 1980
21 | CN1C(=N)N[C@]2(C)c3cc(NC(=O)c4ccc(OC(F)F)cn4)ccc3OCC[C@@H]2S1(=O)=O [Example 12, 5-(difluoromethoxy)-N-((4aS,11bR)-2-imino-3,11b-dimethyl-4,4-dioxido-2,3,4a,5,6,11b-hexahydro-1H-benzo[2,3]oxepino[4,5-e][1,2,4]thiadiazin-10-yl)picolinamide] | 5 | 58
22 | CN1C(=N)N[C@]2(C)c3cc(NC4CCCC4)ccc3OCC[C@@H]2S1(=O)=O [Example 47, (4aS,11bR)-10-(cyclopentylamino)-2-imino-3,11b-dimethyl-2,3,4a,5,6,11b-hexahydro-1H-benzo[2,3]oxepino[4,5-e][1,2,4]thiadiazine 4,4-dioxide] | 348 | 716

Reference: US10238743B2 (Merck Sharp & Dohme Corp., priority 2014, dated 2019)
